Our source for the T/C values is PubChem BioAssay AID330 (DTP/NCI, 2004).

In this experiment the test system is P388 leukemia ip, CD2F1 mice, survival T/C. As to the kind of experiment: NCI In Vivo Anticancer Drug Screen. Data for tumor model P388 Leukemia (intraperitoneal) in CD2F1 (CDF1) mice. Conditions: endpoint: median survival time, higher = longer survival. A digest of the protocol: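 Mice carrying the transplanted tumor received test compound or vehicle. Survival was recorded in each group, and the value is the treated-group measurement divided by that of the vehicle-treated control group.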

The mark [1] stands for this setting: dose: 50.0 mg/kg/injection, schedule: Q01DX005 (ip), vehicle: saline with Tween-80.
[2] abbreviates: dose: 100.0 mg/kg/injection, schedule: Q01DX005 (ip), vehicle: saline with Tween-80.
[3] abbreviates: dose: 200.0 mg/kg/injection, schedule: Q01DX005 (ip), vehicle: saline with Tween-80.
Setting [4] is: dose: 6.25 mg/kg/injection, schedule: Q01DX009 (ip), vehicle: saline.
[5] abbreviates: dose: 12.5 mg/kg/injection, schedule: Q01DX009 (ip), vehicle: saline.
[6] abbreviates: dose: 25.0 mg/kg/injection, schedule: Q01DX009 (ip), vehicle: saline.
[7] abbreviates: dose: 50.0 mg/kg/injection, schedule: Q01DX009 (ip), vehicle: saline with Tween-80.
Where [8] appears, read: dose: 100.0 mg/kg/injection, schedule: Q01DX009 (ip), vehicle: saline with Tween-80.
The mark [9] stands for this setting: dose: 200.0 mg/kg/injection, schedule: Q01DX009 (ip), vehicle: saline with Tween-80.
[10] abbreviates: dose: 100.0 mg/kg/injection, schedule: Q01DX005 (ip), vehicle: Klucel (hydroxypropylcellulose) (HPC).
Setting [11] is: dose: 60.0 mg/kg/injection, schedule: Q01DX005 (ip), vehicle: saline with Tween-80.
Where [12] appears, read: dose: 120.0 mg/kg/injection, schedule: Q01DX005 (ip), vehicle: saline with Tween-80.
Where [13] appears, read: dose: 240.0 mg/kg/injection, schedule: Q01DX005 (ip), vehicle: saline with Tween-80.
Setting [14] is: dose: 12.5 mg/kg/injection, schedule: Q01DX005 (ip), vehicle: Klucel (hydroxypropylcellulose) (HPC).
The mark [15] stands for this setting: dose: 25.0 mg/kg/injection, schedule: Q01DX005 (ip), vehicle: Klucel (hydroxypropylcellulose) (HPC).
The mark [16] stands for this setting: dose: 25.0 mg/kg/injection, schedule: Q01DX009 (ip), vehicle: saline with Tween-80.

Values joined by “and” are separate entries in the source; they are usually repeats but may differ in a detail not shown here. Equal values may be shown once. Inconclusive results and toxic doses are left out.

Consider `O=C(O)c1cc([N+](=O)[O-])ccc1Nc1ccccc1`, for which the T/C is, setting by setting: (dose: 6.25 mg/kg/injection, schedule: Q01DX009 (ip), vehicle: suspension in saline) 108 % of control and 90 % of control; (dose: 12.5 mg/kg/injection, schedule: Q01DX009 (ip), vehicle: suspension in saline) 104 % of control; (dose: 25.0 mg/kg/injection, schedule: Q01DX009 (ip), vehicle: suspension in saline) 100 % of control and 90 % of control; (dose: 50.0 mg/kg/injection, schedule: Q01DX009 (ip), vehicle: suspension in saline) 111 % of control and 91 % of control.

Take `CC1(CC(C)(C)C2CCCCC2)OCCO1`: the T/C is 104 % of control (dose: 6.25 mg/kg/injection, schedule: Q01DX009 (ip), vehicle: water); 108 % of control (dose: 12.5 mg/kg/injection, schedule: Q01DX009 (ip), vehicle: water); 107 % of control (dose: 25.0 mg/kg/injection, schedule: Q01DX009 (ip), vehicle: water); 109 % of control (dose: 50.0 mg/kg/injection, schedule: Q01DX009 (ip), vehicle: water); 90 % of control (dose: 100.0 mg/kg/injection, schedule: Q01DX009 (ip), vehicle: water).

For `Nc1c(C(=O)NCCc2ccccc2)c2nc3c(C(=O)NCCc4ccccc4)ccc(Br)c3oc-2c(Br)c1=O`, the T/C runs as follows: under setting [1], 89 % of control; under setting [2], 94 % of control; under setting [3], 99 % of control.

For the compound `O=C(OCCCCBr)c1ccccc1`, the T/C is, setting by setting: (dose: 50.0 mg/kg/injection, schedule: Q01DX009 (ip), vehicle: saline + Tween-80 + alcohol) 102 % of control; (dose: 100.0 mg/kg/injection, schedule: Q01DX009 (ip), vehicle: saline + Tween-80 + alcohol) 97 % of control; (dose: 200.0 mg/kg/injection, schedule: Q01DX009 (ip), vehicle: saline + Tween-80 + alcohol) 96 % of control; (dose: 400.0 mg/kg/injection, schedule: Q01DX009 (ip), vehicle: saline + Tween-80 + alcohol) 111 % of control.

`CCCCOc1cc(N)nc2ccccc12`: the T/C is, setting by setting: (dose: 12.5 mg/kg/injection, schedule: Q04DX002 (ip), vehicle: saline with Tween-80) 95 % of control; (dose: 25.0 mg/kg/injection, schedule: Q04DX002 (ip), vehicle: saline with Tween-80) 100 % of control; (dose: 50.0 mg/kg/injection, schedule: Q04DX002 (ip), vehicle: saline with Tween-80) 99 % of control.

For `OC/C(Cl)=C(\Cl)CO`, the T/C is 110 % of control under setting [4], 95 % of control under setting [5] and 100 % of control under setting [6].

As for `O=C(NC(=NC(=Nc1ccc(Cl)cc1)c1ccccc1)c1ccccc1)c1ccccc1`, the T/C by setting is: under setting [7], 92 % of control; under setting [8], 95 % of control; under setting [9], 99 % of control.

Turning to `CC(C)C1[NH][Sn]2([NH]C(C(C)C)C(=O)[O]2)[O]C1=O` (centres undefined), the T/C is 97 % of control (dose: 50.0 mg/kg/injection, schedule: Q01DX005 (ip), vehicle: Klucel (hydroxypropylcellulose) (HPC)) and 106 % of control under setting [10].

`CN(C)c1ccc(C2(c3ccccc3)NNC(=O)c3ccccc32)cc1` (centres undefined): the T/C is, setting by setting: (dose: 12.5 mg/kg/injection, schedule: Q01DX005 (ip), vehicle: saline with Tween-80) 92 % of control; (dose: 25.0 mg/kg/injection, schedule: Q01DX005 (ip), vehicle: saline with Tween-80) 88 % of control; under setting [1], 88 % of control; under setting [3], 86 % of control.

Consider `CC1(C)CC(=O)C=C(NC2CCCCC2)C1`, for which the T/C is, setting by setting: under setting [7], 91 % of control; under setting [8], 100 % of control.

As to `CC1(C)CC(=O)C2=C(C1)Nn1c(nnc1C(F)(F)F)S2`, the T/C is, setting by setting: under setting [7], 102 % of control; under setting [8], 110 % of control; under setting [9], 105 % of control.

As for `C=C1C(=O)OC2/C=C(\C)CC/C=C(/C(=O)OC)C(OC(C)=O)C(OC(=O)C(C)(O)C(C)O)C12` (centres undefined), the T/C reads like this: (dose: 3.0 mg/kg/injection, schedule: Q01DX009 (ip), vehicle: Klucel (hydroxypropylcellulose) (HPC)) 116 % of control; (dose: 12.0 mg/kg/injection, schedule: Q01DX009 (ip), vehicle: Klucel (hydroxypropylcellulose) (HPC)) 122 % of control; (dose: 24.0 mg/kg/injection, schedule: Q01DX009 (ip), vehicle: Klucel (hydroxypropylcellulose) (HPC)) 120 % of control.

For the compound `Oc1cc2c(cc1C(c1ccc3c(c1)OCO3)N1CCOCC1)OCO2` (centres undefined), the T/C under setting [11] is 118 % of control, the T/C under setting [12] was 106 % of control and the T/C under setting [13] was 111 % of control.

Consider `O=c1ncc2ccc([N+](=O)[O-])cc2[nH]1`, for which the T/C under setting [14] was 108 % of control and 95 % of control and 98 % of control; the T/C under setting [15] was 102 % of control and 94 % of control and 98 % of control; the T/C under setting [10] is 112 % of control.

For `C=CCSC(=S)Nc1nc2ccc(C)cc2s1`, the T/C runs as follows: (dose: 100.0 mg/kg/injection, schedule: Q04DX003 (ip), vehicle: Klucel (hydroxypropylcellulose) (HPC)) 96 % of control; (dose: 200.0 mg/kg/injection, schedule: Q04DX003 (ip), vehicle: Klucel (hydroxypropylcellulose) (HPC)) 98 % of control; (dose: 400.0 mg/kg/injection, schedule: Q04DX003 (ip), vehicle: Klucel (hydroxypropylcellulose) (HPC)) 97 % of control.

As to `Cc1sc2ccccc2c(=O)c1CO`, the T/C was 97 % of control under setting [11], 97 % of control under setting [12] and 97 % of control under setting [13].

Turning to `CC(=O)Nc1c(Cl)c(Cl)c2c(c1Cl)C(=O)c1cc(Cl)ccc1-2`, the T/C under setting [16] was 90 % of control, the T/C under setting [7] was 90 % of control and the T/C under setting [8] is 90 % of control.

Regarding `COc1cc2ccc(C(C)=O)c(O)c2cc1OC`, the T/C runs as follows: (dose: 12.5 mg/kg/injection, schedule: Q01DX009 (ip), vehicle: other) 92 % of control; (dose: 25.0 mg/kg/injection, schedule: Q01DX009 (ip), vehicle: other) 101 % of control; (dose: 50.0 mg/kg/injection, schedule: Q01DX009 (ip), vehicle: other) 90 % of control; (dose: 100.0 mg/kg/injection, schedule: Q01DX009 (ip), vehicle: other) 108 % of control; (dose: 200.0 mg/kg/injection, schedule: Q01DX009 (ip), vehicle: other) 97 % of control; (dose: 400.0 mg/kg/injection, schedule: Q01DX009 (ip), vehicle: other) 99 % of control.

`CC1=C(CCC(C)NCc2ccc(OCCCN3CCCCC3)cc2)C(C)(C)CCC1` (centres undefined): the T/C (dose: 6.25 mg/kg/injection, schedule: Q01DX005 (ip), vehicle: Klucel (hydroxypropylcellulose) (HPC)) was 104 % of control; the T/C under setting [14] was 98 % of control; the T/C under setting [15] was 104 % of control.

Turning to `CCSc1ncc(Br)c(Sc2nc(N)nc3nc[nH]c23)n1`, the T/C was 113 % of control (dose: 4.0 mg/kg/injection, schedule: Q04DX003 (ip), vehicle: saline with Tween-80); 122 % of control (dose: 6.25 mg/kg/injection, schedule: Q01DX009 (ip), vehicle: saline with Tween-80); 150 % of control (dose: 16.5 mg/kg/injection, schedule: Q04DX003 (ip), vehicle: saline with Tween-80); 90 % of control under setting [16]; 150 % of control and 159 % of control (dose: 25.0 mg/kg/injection, schedule: Q04DX003 (ip), vehicle: saline with Tween-80); 122 % of control (dose: 100.0 mg/kg/injection, schedule: Q04DX003 (ip), vehicle: saline with Tween-80).

On to `CCN(CC)c1cc2oc3cc(N)cc(=N)c-3nc2cc1C`, for which the T/C is 102 % of control (dose: 12.5 mg/kg/injection, schedule: Q01DX005 (ip), vehicle: saline); 98 % of control (dose: 25.0 mg/kg/injection, schedule: Q01DX005 (ip), vehicle: saline); 112 % of control under setting [1]; 96 % of control (dose: 50.0 mg/kg/injection, schedule: Q01DX005 (ip), vehicle: saline); 107 % of control under setting [2]; 102 % of control under setting [3].

For `CCC1(c2ccccc2)N=C1N(C)C` (centres undefined), the T/C is 106 % of control and 92 % of control under setting [4]; 109 % of control and 120 % of control under setting [5]; 116 % of control and 118 % of control under setting [6]; 93 % of control (dose: 200.0 mg/kg/injection, schedule: Q01DX009 (ip), vehicle: saline).
